Measured values: PMC6514607, “Synthesis of Chromen-4-One-Oxadiazole Substituted Analogs as Potent β-Glucuronidase Inhibitors” (Molecules, 2019)

SMILES	melting point
O=c1cc(-c2ccc(-c3nnc(-c4ccc(Cl)cc4)o3)cc2)oc2ccccc12 [Compound 1, 2-(4-(5-(4-Chlorophenyl)-1,3,4-oxadiazol-2-yl)phenyl)-4H-chromen-4-one]	288 to 289 °C
O=c1cc(-c2ccc(-c3nnc(-c4cccc(Cl)c4)o3)cc2)oc2ccccc12 [Compound 2, 2-(4-(5-(3-Chlorophenyl)-1,3,4-oxadiazol-2-yl)phenyl)-4H-chromen-4-one]	282 to 283 °C
O=c1cc(-c2ccc(-c3nnc(Cc4ccccc4Cl)o3)cc2)oc2ccccc12 [Compound 3, 2-(4-(5-(2-Chlorobenzyl)-1,3,4-oxadiazol-2-yl)phenyl)-4H-chromen-4-one]	276 to 277 °C
O=c1cc(-c2ccc(-c3nnc(-c4ccc(F)cc4)o3)cc2)oc2ccccc12 [Compound 4, 2-(4-(5-(4-Fluorophenyl)-1,3,4-oxadiazol-2-yl)phenyl)-4H-chromen-4-one]	299 to 300 °C
O=c1cc(-c2ccc(-c3nnc(-c4cccc(F)c4)o3)cc2)oc2ccccc12 [Compound 5, 2-(4-(5-(3-Fluorophenyl)-1,3,4-oxadiazol-2-yl)phenyl)-4H-chromen-4-one]	294 to 295 °C
O=c1cc(-c2ccc(-c3nnc(-c4ccccc4F)o3)cc2)oc2ccccc12 [Compound 6, 2-(4-(5-(2-Fluorophenyl)-1,3,4-oxadiazol-2-yl)phenyl)-4H-chromen-4-one]	291 to 292 °C
Cc1ccc(-c2nnc(-c3ccc(-c4cc(=O)c5ccccc5o4)cc3)o2)cc1 [Compound 7, 2-(4-(5-(p-Tolyl)-1,3,4-oxadiazol-2-yl)phenyl)-4H-chromen-4-one]	270 to 271 °C
Cc1cccc(-c2nnc(-c3ccc(-c4cc(=O)c5ccccc5o4)cc3)o2)c1 [Compound 8, 2-(4-(5-(m-Tolyl)-1,3,4-oxadiazol-2-yl)phenyl)-4H-chromen-4-one]	264 to 265 °C
Cc1ccccc1-c1nnc(-c2ccc(-c3cc(=O)c4ccccc4o3)cc2)o1 [Compound 9, 2-(4-(5-(o-Tolyl)-1,3,4-oxadiazol-2-yl)phenyl)-4H-chromen-4-one]	260 to 261 °C
O=c1cc(-c2ccc(-c3nnc(-c4ccc([N+](=O)[O-])cc4)o3)cc2)oc2ccccc12 [Compound 10, 2-(4-(5-(4-Nitrophenyl)-1,3,4-oxadiazol-2-yl)phenyl)-4H-chromen-4-one]	304 to 305 °C
O=c1cc(-c2ccc(-c3nnc(-c4cccc([N+](=O)[O-])c4)o3)cc2)oc2ccccc12 [Compound 11, 2-(4-(5-(3-Nitrophenyl)-1,3,4-oxadiazol-2-yl)phenyl)-4H-chromen-4-one]	296 to 297 °C
O=c1cc(-c2ccc(-c3nnc(-c4ccccc4[N+](=O)[O-])o3)cc2)oc2ccccc12 [Compound 12, 2-(4-(5-(2-Nitrophenyl)-1,3,4-oxadiazol-2-yl)phenyl)-4H-chromen-4-one]	287 to 288 °C
COc1ccc(-c2nnc(-c3ccc(-c4cc(=O)c5ccccc5o4)cc3)o2)cc1 [Compound 13, 2-(4-(5-(4-Methoxyphenyl)-1,3,4-oxadiazol-2-yl)phenyl)-4H-chromen-4-one]	307 to 308 °C
COc1cccc(-c2nnc(-c3ccc(-c4cc(=O)c5ccccc5o4)cc3)o2)c1 [Compound 14, 2-(4-(5-(3-Methoxyphenyl)-1,3,4-oxadiazol-2-yl)phenyl)-4H-chromen-4-one]	299 to 300 °C
COc1ccccc1-c1nnc(-c2ccc(-c3cc(=O)c4ccccc4o3)cc2)o1 [Compound 15, 2-(4-(5-(2-Methoxyphenyl)-1,3,4-oxadiazol-2-yl)phenyl)-4H-chromen-4-one]	286 to 287 °C
O=c1cc(-c2ccc(-c3nnc(-c4ccccn4)o3)cc2)oc2ccccc12 [Compound 16, 2-(4-(5-(Pyridin-2-yl)-1,3,4-oxadiazol-2-yl)phenyl)-4H-chromen-4-one]	270 to 271 °C
O=c1cc(-c2ccc(-c3nnc(-c4cccnc4)o3)cc2)oc2ccccc12 [Compound 17, 2-(4-(5-(Pyridin-3-yl)-1,3,4-oxadiazol-2-yl)phenyl)-4H-chromen-4-one]	280 to 281 °C
O=c1cc(-c2ccc(-c3nnc(-c4ccncc4)o3)cc2)oc2ccccc12 [Compound 18, 2-(4-(5-(Pyridin-4-yl)-1,3,4-oxadiazol-2-yl)phenyl)-4H-chromen-4-one]	288 to 289 °C
O=c1cc(-c2ccc(-c3nnc(-c4ccccc4)o3)cc2)oc2ccccc12 [Compound 19, 2-(4-(5-Phenyl-1,3,4-oxadiazol-2-yl)phenyl)-4H-chromen-4-one]	280 to 281 °C
